From patent US20260272851A1, “FORMULATION COMPRISING APOCYNIN AND PAEONOL” (AKL Research & Development Ltd, priority 2022, published 2026)
Several values for one entry are separate records, joined by “and”; a condition that tells them apart may be missing. Identical values can stand only once.

Legend:
Type in all cases: cell-based
[1] = system: human TC28a2 chondrocyte cells; experiment: DRAQ7 chondrocyte viability assay (flow cytometry); conditions: 24 h
Experimental: A novel cell viability assay uses DRAQ7, a marker of apoptosis, necrosis and dead cells. DRAQ7 stains the nuclei in dead and permeabilised cells but not in intact live cells.
To determine the effects of APPA (10 μg/ml) AP (2.3 and 10 μg/ml) and PA (7.7 and 10 μg/ml) on chondrocyte viability, an assay based on DRAQ7™ (Thermo Fisher Scientific) was used. DRAQ7™ is a dye that can be used to show apoptosis, necrosis and dead cells, and the assay includes staining of nuclei in dead and permeabilised cells but not staining of intact live cells.
For the assay, cells were grown in flasks due to higher number of cells required. Following 24 h of different treatments, cells were trypsinised and centrifuged at 1500 rpm for 10 minutes (min). The harvested cells were suspended in 3 µM of the fluorescent dye DRAQ7™ (Thermo Fisher) and incubated in the dark, at room temperature (rt) for 10 min. The samples were run on CytoFLex flow cytometer (Beckman Coulter Inc. Ca, USA). At least 1×10^4 cells per assay were measured. Data were analysed using CyExpert V 2.5 software (Beckman Coulter Inc). […] To establish the position of DRAQ7− and DRAQ7+ gates, one of each negative and positive control was stained with DRAQ7 dye and the other with PBS alone (data not shown).

[2] = system: primary human chondrocytes; experiment: SA-β-Gal levels by FDG flow cytometry in primary chondrocytes exposed to etoposide and OSM; conditions: for SA-β-Gal level (Mean ± SEM): Eto-20 μM + OSM = 1; for effect on SA-β-Gal levels, in words: Eto + OSM, AP 2.3 and 10 μg/ml, PA 7.7 and 10 μg/ml individually (FIG. 7b)
CDKN1A (p21) = CDKN1A (p21) relative mRNA expression by RT-PCR; conditions: primary human chondrocytes
Excerpt: CDKN1 (p21) is a genetic marker for cell senescence that codes for cyclin dependent kinase inhibitor 1A, a regulator of cell cycle progression. The expression of this gene is tightly controlled by the tumor suppressor protein p53. Activated p53 increases the expression of p21 which contributes to senescence. […] Cell-cycle arrest due to an increase in expression of genes that inhibit proliferation, the changes that occur in senescent cells can also result in the increased production of cytokines, growth factors, and matrix metalloproteinase (Loeser R F. Aging and osteoarthritis: the role of chondrocyte senescence and aging changes in the cartilage matrix. Osteoarthritis Cartilage. 2009 August; 17 (8): 971-9). Relative mRNA expression levels of CDKN1 were detected by quantitative real-time (RT)-PCR in presence of positive stimuli +/−10 μg/ml APPA. Data were obtained from eight independent donors. Values are presented as mean±SEM and analyzed by Mann Whitney test (*p≤0.05). RNA extraction was achieved using TRIzol® (Sigma-Aldrich), following the manufacturer's protocol. 0.5 μg of RNA was reversely transcribed into cDNA using Super Script VILO (Thermofisher Scientific, Waltham, Massachusetts, USA) following the manufacturer's instructions. RT-PCR was developed in a LightCycler 480-II Instrument (Roche, Mannheim, Germany) using TaqMan Universal Master Mix (Roche). Analysis of the results was carried out using Qbase+ version 2.5 software (Biogazelle, Ghent, Belgium). Gene expression was calculated relative to the housekeeping gene Glyceraldehyde-3-Phosphate Dehydrogenase (GAPDH). Relative mRNA expression levels of cyclin dependent kinase inhibitor 1A (CDKN1) were detected by quantitative real-time (RT)-PCR in the same manner as above. Data were obtained from six independent donors.

[3] = system: human TC28a2 chondrocyte cells; experiment: SA-β-Gal activity by FDG flow cytometry in TC28a2 cells exposed to IL-6 or etoposide; conditions: Basal = 1
Experimental: The immortalized human juvenile chondrocyte cell line T/C28a2 (25), was used in some experiments.
Cells were plated at a density of 5×10^4 cells/well in Corning® CellBIND® multiwell 96 plates (MW 96) (Corning, NY, USA) or 1.8×10^5 cells/well in MW 12 plates (Corning, NY, USA) for analysis. Cells were left to equilibrate overnight in DMEM at 5% or 2% of FBS in 5% CO2 at 37° C.
The effect of APPA on number of senescent cells was therefore evaluated by the quantification of β-galactosidase activity using flow cytometry. β-galactosidase activity was detected using fluorescein di-β-D-galactopyranoside (FDG; Thermo Fisher, Waltham, MA, USA) by flow cytometry. Non-fluorescent FDG is sequentially hydrolysed by β-galactosidase, first to fluorescein monogalactoside and then to highly fluorescent fluorescein. Enzyme-mediated hydrolysis of FDG can be followed by the increase in fluorescence.
These conditions were evaluated with and without 10 μg/ml APPA for 24 h. […] At the end of incubation, cultures were washed with PBS, resuspended by trypsinization and analysed immediately using a FACScalibour flow cytometer (Becton Dickinson). Data were acquired and analysed with Cellquest software (Becton Dickinson). Each fluorescein signal was measured on an FL1 detector and β-galactosidase activity was estimated using the median fluorescence intensity (arbitrary units) of the cell population.

BECN-1 = BECN-1 gene expression by RT-PCR; conditions: primary human chondrocytes; Eto + OSM + PA 7.7 μg/ml (FIG. 7d)
Experimental: RNA extraction was achieved using TRIzol® (Sigma-Aldrich), following the manufacturer's protocol. 0.5 μg of RNA was reversely transcribed into cDNA using Super Script VILO (Thermofisher Scientific, Waltham, Massachusetts, USA) following the manufacturer's instructions. RT-PCR was developed in a LightCycler 480-II Instrument (Roche, Mannheim, Germany) using TaqMan Universal Master Mix (Roche). Analysis of the results was carried out using Qbase+ version 2.5 software (Biogazelle, Ghent, Belgium). Gene expression was calculated relative to the housekeeping gene Glyceraldehyde-3-Phosphate Dehydrogenase (GAPDH). […] BECN-1 is a regulator of autophagy; the encoded protein, Beclin1, is a component of the phosphatidylinositol-3-kinase (PI3K) complex which mediates vesicle-trafficking processes. Autophagy is a self-degradative process that is important for balancing sources of energy at critical times during development and in response to cell stress. Although autophagy is not a type of cell death, it is important for cartilage homeostasis. […]

## COc1cc(C(C)=O)ccc1O [AP, 4-hydroxy-3-methoxyacetophenone]
[1]; human, 10 μg/ml
  percentage of (non-viable) cells positive for DRAQ7: 5.05%
[2]; Eto + OSM + AP-2.3 μg/ml
  SA-β-Gal level (Mean ± SEM): 0.9947
[2]; Eto + OSM + AP-10 μg/ml
  SA-β-Gal level (Mean ± SEM): 1.01
[2]
  effect on SA-β-Gal levels, in words: no significant effects
CDKN1A (p21); Eto 20 μM + OSM 10 ng/ml + AP 2.3 μg/ml
  expression level of CDKN1A (p21) (Mean ± SEM): 1.0102 ± 0.25
CDKN1A (p21); Eto 20 μM + OSM 10 ng/ml + AP 10 μg/ml
  expression level of CDKN1A (p21) (Mean ± SEM): 1.617 ± 0.32
CDKN1A (p21); Eto + OSM, AP at 2.3 and 10 μg/ml
  effect on CDKN1A (p21) expression, in words: neither concentration of AP nor PA 7.7 μg/ml had any significant effect
[3]; Eto-5 μM + AP 2.3 μg/ml
  SA-β-Gal level (Mean ± SEM): 0.9191
[3]; Eto-5 μM + AP 10 μg/ml
  SA-β-Gal level (Mean ± SEM): 0.8948

## COc1ccc(C(C)=O)c(O)c1 [PA, 2-hydroxy-4-methoxyacetophenone]
[1]; TC28a2, APPA 10, AP 2.3 and 10, PA 7.7 and 10 μg/ml
  effect on cell viability (DRAQ7): do not affect cell viability
BECN-1
  BECN-1 gene expression: significantly counteracted
[2]; Eto + OSM + PA-7.7 μg/ml
  SA-β-Gal level (Mean ± SEM): 0.9844
[2]; Eto + OSM + PA-10 μg/ml
  SA-β-Gal level (Mean ± SEM): 0.9622
[2]
  effect on SA-β-Gal levels, in words: no significant effects
CDKN1A (p21); Eto 20 μM + OSM 10 ng/ml + 10 μg/ml (PA 10 μg/ml per text)
  expression level of CDKN1A (p21) (Mean ± SEM): 0.869 ±0.17 and 0.8635 ± 0.17
